# In ChEMBL document CHEMBL4665775, “Half-life extension of peptidic APJ agonists by N-terminal lipid conjugation” (Bioorg Med Chem Lett, 2020):
# Key:
# [1] = AUC (0 to t) in Sprague-Dawley rat at 0.5 mg/kg, sc administered as single dose and measured up to 48 hrs; type: ADME, organism-based; parameters: route subcutaneous, dose 0.5 mg/kg, time <=48; conditions: in vivo
# [2] = Half life in Sprague-Dawley rat at 0.5 mg/kg, sc administered as single dose and measured up to 48 hrs; type: ADME, organism-based; conditions: in vivo
# [3] = Plasma protein binding in rat assessed as unbound fraction by LC-MS/MS analysis; type: ADME, cell-free
# [4] = Unbound clearance in Sprague-Dawley rat at 0.1 mg/kg, iv administered as single dose and measured up to 48 hrs; type: ADME, organism-based; conditions: in vivo
# [5] = Bioavailability in Sprague-Dawley rat at 0.5 mg/kg, sc administered as single dose and measured up to 48 hrs; type: ADME, organism-based; conditions: in vivo
# [6] = Clearance in Sprague-Dawley rat at 0.1 mg/kg, iv administered as single dose and measured up to 48 hrs; type: ADME, organism-based; conditions: in vivo
# Apelin receptor = target: T1, Apelin receptor (Rattus norvegicus, UniProt Q9JHG3); experiment: Agonist activity at rat APJ receptor stably expressed in CHO cell membranes in presence of [35S]GTPgammaS by scintillation proximity assay; type: functional
# T1 sequence (Q9JHG3 whole entry): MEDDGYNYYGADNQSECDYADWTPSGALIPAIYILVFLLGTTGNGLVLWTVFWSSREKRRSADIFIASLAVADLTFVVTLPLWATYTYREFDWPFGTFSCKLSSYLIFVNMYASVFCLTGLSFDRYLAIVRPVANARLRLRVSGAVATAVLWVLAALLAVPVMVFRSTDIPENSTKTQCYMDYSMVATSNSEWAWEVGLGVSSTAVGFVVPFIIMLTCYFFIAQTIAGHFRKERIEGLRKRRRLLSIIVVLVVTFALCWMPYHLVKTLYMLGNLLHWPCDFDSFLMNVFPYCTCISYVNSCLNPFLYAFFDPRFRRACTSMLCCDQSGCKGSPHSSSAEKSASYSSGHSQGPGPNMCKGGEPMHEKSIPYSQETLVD
# [7] = Stability in rat Kidney S9 fraction assessed as compound remaining at 4 hrs; type: ADME, subcellular; conditions: read-out: Stabilty
# [8] = Tmax in Sprague-Dawley rat at 0.5 mg/kg, sc administered as single dose and measured up to 48 hrs; type: ADME, organism-based; conditions: in vivo
# [9] = Stability in rat liver S9 fraction assessed as compound remaining at 4 hrs; type: ADME, subcellular; conditions: read-out: Stabilty
# [10] = AUC (0 to t) in Sprague-Dawley rat at 0.1 mg/kg, iv administered as single dose and measured up 48 hrs; type: ADME, organism-based; parameters: dose 0.1 mg/kg, time <=48; conditions: in vivo
# [11] = Stability in rat plasma assessed as compound remaining at 4 hrs; type: ADME, cell-free; conditions: read-out: Stabilty
# [12] = Unbound Cmax in Sprague-Dawley rat at 0.5 mg/kg, sc administered as single dose and measured up to 48 hrs; type: ADME, organism-based; conditions: in vivo
# [13] = Volume of distribution at steady state in Sprague-Dawley rat at 0.1 mg/kg, iv administered as single dose and measured up to 48 hrs; type: ADME, organism-based; conditions: in vivo, read-out: Vdss
# [14] = Half life in Sprague-Dawley rat at 0.1 mg/kg, iv administered as single dose and measured up to 48 hrs; type: ADME, organism-based; conditions: in vivo
SMILES,AUC(0-t) at 48 h [1] [µM·h],half-life [2] [h],fraction unbound [3],CL free [4] [mL/min/kg],bioavailability [5] [%],clearance [6] [mL/min/kg],EC50 (Apelin receptor) [nM],remaining at 4 h [7] [%],Tmax [8] [h],remaining at 4 h [9] [%],AUC(0-t) at 48 h [10] [µM·h],remaining at 4 h [11] [%],fCmax [12] [nM],Vd [13] [L/kg],half-life [14] [h]
CC(C)C[C@@H](C(=O)N[C@@H](CO)C(=O)N[C@@H](Cc1c[nH]cn1)C(=O)N[C@@H](CCCNC(=N)N)C(=O)NCC(=O)N1[C@H](C(=O)N[C@@H](Cc2ccc(I)cc2)C(=O)N2CCC[C@H]2C(=O)N[C@H](Cc2ccc(-c3ccccc3)cc2)C(=O)O)C[C@@H]2CCCC[C@@H]21)N(C)C(=O)[C@@H](CCCNC(=N)N)NC(=O)[C@@H]1CCCN1C(=O)[C@H](CCCCNC(=N)N)NC(=O)[C@H](CCC(N)=O)NC(=O)[C@@H](CCCNC(=N)N)NC(=O)[C@H](CCCCNC(=N)N)NC(=O)COCCOCCNC(=O)COCCOCCNC(=O)CC[C@H](NC(=O)CCCCCCCCCCCCCCCCC(=O)O)C(=O)O,9.58,> 24,0.0013,85,> 36,0.11,117,86,24,85,4.45,> 90,0.33,0.165,19.7
CCCCCCCCCCCCCCC(=O)N[C@@H](CCC(=O)NCCOCCOCC(=O)NCCOCCOCC(=O)N[C@@H](CCCCNC(=N)N)C(=O)N[C@H](CCCNC(=N)N)C(=O)N[C@@H](CCC(N)=O)C(=O)N[C@@H](CCCCNC(=N)N)C(=O)N1CCC[C@H]1C(=O)N[C@H](CCCNC(=N)N)C(=O)N(C)[C@@H](CC(C)C)C(=O)N[C@@H](CO)C(=O)N[C@@H](Cc1c[nH]cn1)C(=O)N[C@@H](CCCCN)C(=O)NCC(=O)N1[C@H](C(=O)N[C@@H](Cc2ccc(I)cc2)C(=O)N2CCC[C@H]2C(=O)N[C@H](Cc2ccc(-c3ccccc3)cc2)C(=O)O)C[C@@H]2CCCC[C@@H]21)C(=O)O,0.404,6.3,0.0021,650,24,1.35,4.39,84,8,66,0.426,> 90,0.07,0.074,1.84
CCCCCCCCCCCCCCCCC(=O)N[C@@H](CCC(=O)NCCOCCOCC(=O)NCCOCCOCC(=O)N[C@@H](CCCCNC(=N)N)C(=O)N[C@H](CCCNC(=N)N)C(=O)N[C@@H](CCC(N)=O)C(=O)N[C@@H](CCCCNC(=N)N)C(=O)N1CCC[C@H]1C(=O)N[C@H](CCCNC(=N)N)C(=O)N(C)[C@@H](CC(C)C)C(=O)N[C@@H](CO)C(=O)N[C@@H](Cc1c[nH]cn1)C(=O)N[C@@H](CCCCN)C(=O)NCC(=O)N1[C@H](C(=O)N[C@@H](Cc2ccc(I)cc2)C(=O)N2CCC[C@H]2C(=O)N[C@H](Cc2ccc(-c3ccccc3)cc2)C(=O)O)C[C@@H]2CCCC[C@@H]21)C(=O)O,0.753,10.3,0.0064,200,36,1.23,7.42,83,12,68,0.465,79,0.27,0.092,2.18
CCCCCC(=O)N[C@@H](CCC(=O)NCCOCCOCC(=O)NCCOCCOCC(=O)N[C@@H](CCCCNC(=N)N)C(=O)N[C@H](CCCNC(=N)N)C(=O)N[C@@H](CCC(N)=O)C(=O)N[C@@H](CCCCNC(=N)N)C(=O)N1CCC[C@H]1C(=O)N[C@H](CCCNC(=N)N)C(=O)N(C)[C@@H](CC(C)C)C(=O)N[C@@H](CO)C(=O)N[C@@H](Cc1c[nH]cn1)C(=O)N[C@@H](CCCCN)C(=O)NCC(=O)N1[C@H](C(=O)N[C@@H](Cc2ccc(I)cc2)C(=O)N2CCC[C@H]2C(=O)N[C@H](Cc2ccc(-c3ccccc3)cc2)C(=O)O)C[C@@H]2CCCC[C@@H]21)C(=O)O,1.05,2.6,0.0034,483,56,1.64,2.31,–,4,–,0.372,–,0.37,0.203,2.31
CC(=O)N[C@@H](CCCCNC(=N)N)C(=O)N[C@H](CCCNC(=N)N)C(=O)N[C@@H](CCC(N)=O)C(=O)N[C@@H](CCCCNC(=N)N)C(=O)N1CCC[C@H]1C(=O)N[C@H](CCCNC(=N)N)C(=O)N(C)[C@@H](CC(C)C)C(=O)N[C@@H](CO)C(=O)N[C@@H](Cc1c[nH]cn1)C(=O)N[C@@H](CCCCN)C(=O)NCC(=O)N1[C@H](C(=O)N[C@@H](Cc2ccc(I)cc2)C(=O)N2CCC[C@H]2C(=O)N[C@H](Cc2ccc(-c3ccccc3)cc2)C(=O)O)C[C@@H]2CCCC[C@@H]21,–,–,0.179,56.2,–,10.1,1.95,45,–,41,0.073,86,–,0.298,0.362
CCCCCCCCCCCCC(=O)N[C@@H](CCC(=O)NCCOCCOCC(=O)NCCOCCOCC(=O)N[C@@H](CCCCNC(=N)N)C(=O)N[C@H](CCCNC(=N)N)C(=O)N[C@@H](CCC(N)=O)C(=O)N[C@@H](CCCCNC(=N)N)C(=O)N1CCC[C@H]1C(=O)N[C@H](CCCNC(=N)N)C(=O)N(C)[C@@H](CC(C)C)C(=O)N[C@@H](CO)C(=O)N[C@@H](Cc1c[nH]cn1)C(=O)N[C@@H](CCCCN)C(=O)NCC(=O)N1[C@H](C(=O)N[C@@H](Cc2ccc(I)cc2)C(=O)N2CCC[C@H]2C(=O)N[C@H](Cc2ccc(-c3ccccc3)cc2)C(=O)O)C[C@@H]2CCCC[C@@H]21)C(=O)O,0.349,10.2,0.0022,1000,33,2.18,6.22,86,6,45,0.269,> 90,0.06,0.231,3.4
CC(C)C[C@@H](C(=O)N[C@@H](CO)C(=O)N[C@@H](Cc1c[nH]cn1)C(=O)N[C@@H](CCCCN)C(=O)NCC(=O)N1[C@H](C(=O)N[C@@H](Cc2ccc(I)cc2)C(=O)N2CCC[C@H]2C(=O)N[C@H](Cc2ccc(-c3ccccc3)cc2)C(=O)O)C[C@@H]2CCCC[C@@H]21)N(C)C(=O)[C@@H](CCCNC(=N)N)NC(=O)[C@@H]1CCCN1C(=O)[C@H](CCCCNC(=N)N)NC(=O)[C@H](CCC(N)=O)NC(=O)[C@@H](CCCNC(=N)N)NC(=O)[C@H](CCCCNC(=N)N)NC(=O)COCCOCCNC(=O)COCCOCCNC(=O)CC[C@H](NC(=O)CCCCC(=O)O)C(=O)O,1.98,4.1,0.0061,152,58,0.92,4.1,76,4.7,15,0.682,> 90,1.2,0.139,2.32
